Consider 20 compounds from US10160747B2, “Compounds and methods for kinase modulation, and indications therefor” (Plexxikon Inc., priority 2016, dated 2018).

In one experiment the target is T1, FLT3-ITD (Homo sapiens, UniProt P36888).
T1 sequence (P36888 1-993): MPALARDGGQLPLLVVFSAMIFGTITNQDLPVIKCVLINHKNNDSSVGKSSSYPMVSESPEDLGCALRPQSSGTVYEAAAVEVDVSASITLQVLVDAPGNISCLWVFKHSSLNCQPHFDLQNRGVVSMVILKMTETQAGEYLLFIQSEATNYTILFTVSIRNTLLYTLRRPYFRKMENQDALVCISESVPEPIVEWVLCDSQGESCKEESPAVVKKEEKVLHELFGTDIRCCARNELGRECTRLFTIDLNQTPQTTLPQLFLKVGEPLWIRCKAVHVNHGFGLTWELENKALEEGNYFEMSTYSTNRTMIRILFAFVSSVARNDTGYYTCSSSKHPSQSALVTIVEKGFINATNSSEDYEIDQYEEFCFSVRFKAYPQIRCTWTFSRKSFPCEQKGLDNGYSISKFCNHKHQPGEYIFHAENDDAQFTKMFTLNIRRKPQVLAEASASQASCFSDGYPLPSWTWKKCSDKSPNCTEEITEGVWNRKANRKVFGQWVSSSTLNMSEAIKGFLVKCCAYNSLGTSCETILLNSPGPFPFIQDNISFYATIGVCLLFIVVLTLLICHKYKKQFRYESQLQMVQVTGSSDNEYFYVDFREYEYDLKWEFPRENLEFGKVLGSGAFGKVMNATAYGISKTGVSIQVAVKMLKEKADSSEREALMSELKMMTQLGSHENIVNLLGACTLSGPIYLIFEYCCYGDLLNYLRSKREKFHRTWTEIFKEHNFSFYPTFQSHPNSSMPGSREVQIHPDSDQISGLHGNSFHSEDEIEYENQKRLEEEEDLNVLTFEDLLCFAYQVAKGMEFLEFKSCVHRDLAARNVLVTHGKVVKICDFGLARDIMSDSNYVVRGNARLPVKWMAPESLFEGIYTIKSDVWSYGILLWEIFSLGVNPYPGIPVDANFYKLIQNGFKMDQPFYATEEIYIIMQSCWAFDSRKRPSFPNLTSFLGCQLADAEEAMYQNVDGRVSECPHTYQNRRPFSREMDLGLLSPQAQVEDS
Kind of experiment: FLT3-ITD recombinant enzyme kinase assay (AlphaScreen). In kind it is biochemical. To be noted: 8 pt; read-out: FLT3_ITD 8 pt: IC50. Summed up:
(§1)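 Enzyme plus biotinylated poly(Glu4-Tyr) substrate (30 nM) mixed with compound, then ATP added. Donor beads went in for 20 min at room temperature, then PY20 acceptor beads for 60 min. AlphaScreen read; ATP was 10 μM for FLT3-ITD/D835Y and 100 μM for c-KIT.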

For a further experiment, the target named is T2, c-KIT (Homo sapiens, UniProt P10721).
T2 construct: purchased Millipore 14-559K
T2 sequence (P10721 26-976): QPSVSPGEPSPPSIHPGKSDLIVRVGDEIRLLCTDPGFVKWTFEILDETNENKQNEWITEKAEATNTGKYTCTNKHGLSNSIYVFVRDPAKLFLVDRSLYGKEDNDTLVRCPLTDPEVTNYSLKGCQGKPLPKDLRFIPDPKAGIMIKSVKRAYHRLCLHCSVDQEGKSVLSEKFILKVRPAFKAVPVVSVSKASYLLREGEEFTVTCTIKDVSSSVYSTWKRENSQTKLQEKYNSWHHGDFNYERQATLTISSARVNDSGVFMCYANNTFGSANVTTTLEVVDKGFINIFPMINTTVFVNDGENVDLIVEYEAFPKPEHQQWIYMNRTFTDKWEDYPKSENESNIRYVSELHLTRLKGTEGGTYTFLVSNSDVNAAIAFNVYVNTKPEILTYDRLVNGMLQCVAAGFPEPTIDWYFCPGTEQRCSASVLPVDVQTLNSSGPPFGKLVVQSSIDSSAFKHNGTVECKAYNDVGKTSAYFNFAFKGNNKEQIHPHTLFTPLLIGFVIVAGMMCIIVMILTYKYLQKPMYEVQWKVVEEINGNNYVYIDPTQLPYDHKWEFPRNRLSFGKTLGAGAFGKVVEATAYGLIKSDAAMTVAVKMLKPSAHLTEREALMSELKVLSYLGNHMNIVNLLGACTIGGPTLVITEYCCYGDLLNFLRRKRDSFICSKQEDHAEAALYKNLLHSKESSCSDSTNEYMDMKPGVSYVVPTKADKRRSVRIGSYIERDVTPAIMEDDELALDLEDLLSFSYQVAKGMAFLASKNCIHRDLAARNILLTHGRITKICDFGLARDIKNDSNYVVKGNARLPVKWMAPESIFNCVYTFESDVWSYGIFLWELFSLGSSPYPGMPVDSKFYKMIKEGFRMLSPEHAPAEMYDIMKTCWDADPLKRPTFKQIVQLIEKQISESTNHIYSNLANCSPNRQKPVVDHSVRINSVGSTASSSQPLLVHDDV
In words: c-KIT recombinant enzyme kinase assay (AlphaScreen). Type of experiment: biochemical. To be noted: 100 ATP, 8 pt. A digest of the protocol: as §1

SMILES strings stand for the structures.

Consider `Cc1cc(CC(=O)Nc2cccc(C(F)(F)F)c2)ccc1-c1cnc2[nH]c(-c3ccccc3)cc2c1` [Compound P-0002, 2-[3-methyl-4-(2-phenyl-1H-pyrrolo[2,3-b]pyridin-5-yl)phenyl]-N-[3-(trifluoromethyl)phenyl]acetamide], for which the IC50 on FLT3-ITD fell in the range of 0.0001 to 10 µM. `O=C(Cc1ccc(-c2cnc(Nc3cnn(C(F)F)c3)nc2)c(F)c1)Nc1cc(C(F)(F)F)ccn1` [Compound P-0024, 2-[4-[2-[[1-(difluoromethyl)pyrazol-4-yl]amino]pyrimidin-5-yl]-3-fluoro-phenyl]-N-[4-(trifluoromethyl)-2-pyridyl]acetamide]: the IC50 on FLT3-ITD and on c-KIT was 0.0001 to 10 µM throughout. Turning to `COc1ncc(NC(=O)Cc2ccc(-c3cnc(Nc4cn[nH]c4)nc3)cc2)cc1C(F)(F)F` [Compound P-0025, N-[6-methoxy-5-(trifluoromethyl)-3-pyridyl]-2-[4-[2-(1H-pyrazol-4-ylamino)pyrimidin-5-yl]phenyl]acetamide], the IC50 at FLT3-ITD and on c-KIT was 0.0001 to 10 µM throughout. As to `COc1ncc(NC(=O)Cc2ccc(-c3cnc(Nc4cn[nH]c4)nc3)cc2F)cc1C(F)(F)F` [Compound P-0026, 2-[2-fluoro-4-[2-(1H-pyrazol-4-ylamino)pyrimidin-5-yl]phenyl]-N-[6-methoxy-5-(trifluoromethyl)-3-pyridyl]acetamide], the IC50 on FLT3-ITD and at c-KIT was 0.0001 to 10 µM each time. As for `Cc1ncc(NC(=O)Cc2ccc(-c3cnc(Nc4cn[nH]c4)nc3)cc2F)cc1C(F)(F)F` [Compound P-0027, 2-[2-fluoro-4-[2-(1H-pyrazol-4-ylamino)pyrimidin-5-yl]phenyl]-N-[6-methyl-5-(trifluoromethyl)-3-pyridyl]acetamide], the IC50 at FLT3-ITD and on c-KIT was 0.0001 to 10 µM in each case.

For `O=C(Cc1ccc(-c2cnc3[nH]cc(F)c3c2)cc1F)Nc1ccnc(C(F)(F)F)c1` [Compound P-0029, 2-[2-fluoro-4-(3-fluoro-1H-pyrrolo[2,3-b]pyridin-5-yl)phenyl]-N-[2-(trifluoromethyl)-4-pyridyl]acetamide], the IC50 at FLT3-ITD and on c-KIT was 0.0001 to 10 µM each time. With `O=C(Cc1ccc(-c2cnc3[nH]c(Cl)cc3c2)cc1F)Nc1ccnc(C(F)(F)F)c1` [Compound P-0030, 2-[4-(2-chloro-1H-pyrrolo[2,3-b]pyridin-5-yl)-2-fluoro-phenyl]-N-[2-(trifluoromethyl)-4-pyridyl]acetamide], the concentration for half-maximal inhibition (IC50) at FLT3-ITD and at c-KIT was 0.0001 to 10 µM throughout.

For `CC(=O)c1c[nH]c2ncc(-c3ccc(CC(=O)Nc4ccnc(C(F)(F)F)c4)c(F)c3)cc12` [Compound P-0031, 2-(4-(3-acetyl-1H-pyrrolo[2,3-b]pyridin-5-yl)-2-fluorophenyl)-N-(2-(trifluoromethyl)pyridin-4-yl)acetamide], the half-inhibitory concentration (IC50) at FLT3-ITD and on c-KIT was 0.0001 to 10 µM throughout.

Regarding `O=C(Cc1ccc(-c2cnc3[nH]cc(C(=O)C4CC4)c3c2)cc1F)Nc1ccnc(C(F)(F)F)c1` [Compound P-0032, 2-[4-[3-(cyclopropanecarbonyl)-1H-pyrrolo[2,3-b]pyridin-5-yl]-2-fluoro-phenyl]-N-[2-(trifluoromethyl)-4-pyridyl]acetamide], the 50% inhibitory concentration (IC50) on FLT3-ITD and at c-KIT was 0.0001 to 10 µM in each case.

`O=C(Cc1ccc(-c2cnc(Nc3cnn4ccccc34)nc2)cc1F)Nc1ccnc(C(F)(F)F)c1` [Compound P-0033, 2-[2-fluoro-4-[2-(pyrazolo[1,5-a]pyridin-3-ylamino)pyrimidin-5-yl]phenyl]-N-[2-(trifluoromethyl)-4-pyridyl]acetamide]: the half-maximal inhibitory concentration (IC50) on FLT3-ITD and on c-KIT was 0.0001 to 10 µM each time. Regarding `COc1ncc(NC(=O)Cc2ccc(-c3cnc4[nH]cc(F)c4c3)cc2F)cc1C(F)(F)F` [Compound P-0034, 2-[2-fluoro-4-(3-fluoro-1H-pyrrolo[2,3-b]pyridin-5-yl)phenyl]-N-[6-methoxy-5-(trifluoromethyl)-3-pyridyl]acetamide], the half-inhibitory concentration (IC50) on FLT3-ITD and on c-KIT was 0.0001 to 10 µM in each case. In the case of `COc1ncc(NC(=O)Cc2ccc(-c3cnc4[nH]cc(C(C)=O)c4c3)cc2F)cc1C(F)(F)F` [Compound P-0035, 2-[4-(3-acetyl-1H-pyrrolo[2,3-b]pyridin-5-yl)-2-fluoro-phenyl]-N-[6-methoxy-5-(trifluoromethyl)-3-pyridyl]acetamide], the IC50 on FLT3-ITD and at c-KIT was 0.0001 to 10 µM throughout.

With `COc1ncc(NC(=O)Cc2ccc(-c3cnc4[nH]cc(C(=O)C5CC5)c4c3)cc2F)cc1C(F)(F)F` [Compound P-0036, 2-[4-[3-(cyclopropanecarbonyl)-1H-pyrrolo[2,3-b]pyridin-5-yl]-2-fluoro-phenyl]-N-[6-methoxy-5-(trifluoromethyl)-3-pyridyl]acetamide], the IC50 on FLT3-ITD and on c-KIT was 0.0001 to 10 µM in each case.

On to `COc1ncc(NC(=O)Cc2ccc(-c3cnc(Nc4cnn5ccccc45)nc3)cc2F)cc1C(F)(F)F` [Compound P-0037, 2-[2-fluoro-4-[2-(pyrazolo[1,5-a]pyridin-3-ylamino)pyrimidin-5-yl]phenyl]-N-[6-methoxy-5-(trifluoromethyl)-3-pyridyl]acetamide], for which the IC50 at FLT3-ITD and at c-KIT was 0.0001 to 10 µM each time. With `COc1ncc(NC(=O)Cc2ccc(-c3cnc4[nH]c(Cl)cc4c3)cc2F)cc1C(F)(F)F` [Compound P-0038, 2-[4-(2-chloro-1H-pyrrolo[2,3-b]pyridin-5-yl)-2-fluoro-phenyl]-N-[6-methoxy-5-(trifluoromethyl)-3-pyridyl]acetamide], on FLT3-ITD, the half-maximal inhibitory concentration (IC50) is 0.0001 to 10 µM. For the compound `COc1ncc(NC(=O)Cc2cc(F)c(-c3cnc4[nH]c(Cl)cc4c3)cc2F)cc1C(F)(F)F` [Compound P-0045, 2-[4-(2-chloro-1H-pyrrolo[2,3-b]pyridin-5-yl)-2,5-difluoro-phenyl]-N-[6-methoxy-5-(trifluoromethyl)-3-pyridyl]acetamide], the IC50 on FLT3-ITD lay within 0.0001 to 10 µM. Take `COc1ncc(NC(=O)Cc2ccc(-c3cnc4[nH]c(Cl)cc4c3)c(F)c2)cc1C(F)(F)F` [Compound P-0046, 2-[4-(2-chloro-1H-pyrrolo[2,3-b]pyridin-5-yl)-3-fluoro-phenyl]-N-[6-methoxy-5-(trifluoromethyl)-3-pyridyl]acetamide]: on FLT3-ITD, the IC50 is 0.0001 to 10 µM.

On to `COc1ncc(NC(=O)Cc2ccc(-c3cnc4[nH]cc(F)c4c3)c(F)c2)cc1C(F)(F)F` [Compound P-0048, 2-[3-fluoro-4-(3-fluoro-1H-pyrrolo[2,3-b]pyridin-5-yl)phenyl]-N-[6-methoxy-5-(trifluoromethyl)-3-pyridyl]acetamide], for which the IC50 at c-KIT was 0.0001 to 10 µM. On to `O=C(Cc1ccc(-c2cnc(Nc3cnn4ccccc34)nc2)cc1)Nc1cncc(C(F)(F)F)c1` [Compound P-0074, 2-[4-[2-(pyrazolo[1,5-a]pyridin-3-ylamino)pyrimidin-5-yl]phenyl]-N-[5-(trifluoromethyl)-3-pyridyl]acetamide], for which, at FLT3-ITD, the half-inhibitory concentration (IC50) fell in the range of 0.0001 to 10 µM. Same read-out and setting: the figure for `O=C(Cc1cc(F)c(-c2cnc(Nc3cnn4ccccc34)nc2)cc1F)Nc1cncc(C(F)(F)F)c1` [Compound P-0075, 2-[2,5-difluoro-4-[2-(pyrazolo[1,5-a]pyridin-3-ylamino)pyrimidin-5-yl]phenyl]-N-[5-(trifluoromethyl)-3-pyridyl]acetamide] is 0.0001 to 10 µM.
